PubChem BioAssay AID493132 (Sanford-Burnham Center for Chemical Genomics, 2011)
Activity calls are given as the source filed them.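 How the source made its calls: active means EC50 below 100 µM for activating human gut alkaline phosphatase; inactive means the rest.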

Molecular target: Intestinal-type alkaline phosphatase (Homo sapiens) (UniProt P09923)
Assay: human IAP activators, SAR follow-up, biochemical, luminescence (AID 493132)
Conditions: purified IAP, CDP-Star luminescence, 30 min

Chain of Intestinal-type alkaline phosphatase (Homo sapiens) (P09923 whole entry, looked up): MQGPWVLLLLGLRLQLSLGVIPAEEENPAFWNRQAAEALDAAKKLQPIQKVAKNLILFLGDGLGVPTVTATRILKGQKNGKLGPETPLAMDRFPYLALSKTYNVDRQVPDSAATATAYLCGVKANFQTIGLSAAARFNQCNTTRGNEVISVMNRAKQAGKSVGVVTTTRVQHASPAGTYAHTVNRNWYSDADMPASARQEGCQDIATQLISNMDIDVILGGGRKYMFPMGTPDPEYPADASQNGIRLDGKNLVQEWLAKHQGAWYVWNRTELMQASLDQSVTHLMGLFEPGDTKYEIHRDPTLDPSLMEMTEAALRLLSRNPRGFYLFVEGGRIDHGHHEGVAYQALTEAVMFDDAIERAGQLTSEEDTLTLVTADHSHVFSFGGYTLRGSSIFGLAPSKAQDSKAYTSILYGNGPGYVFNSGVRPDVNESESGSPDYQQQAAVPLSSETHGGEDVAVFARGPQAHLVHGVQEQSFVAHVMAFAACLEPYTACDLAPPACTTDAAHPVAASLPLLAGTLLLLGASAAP

Row | Compound | EC50
1 | COc1cccc(C=NNC(=O)C(=O)NN=Cc2cccc(OC)c2OC)c1OC | 30.4 µM
2 | CC(C)C(=O)NC(=S)Nc1ccccc1C(=O)Nc1ccccc1 | 8.68 µM
3 | O=C(NNC(=S)NC(=O)c1ccccc1[N+](=O)[O-])c1ccccc1O | 15.3 µM
4 | Cc1cc(C(=O)N/N=C/c2cc(Br)ccc2O)n[nH]1 | 9.33 µM
5 | COc1ccc(/C=N/NC(=O)C(=O)N/N=C/c2ccc(OC)c(OC)c2)cc1OC | > 100 µM (inactive)
6 | O=C(N/N=C/c1ccccc1C(=O)O)C(=O)N/N=C/c1ccccc1C(=O)O | 39.3 µM
7 | CCCCOc1ccc(/C=N/NC(=O)C(=O)N/N=C/c2ccc(OCCCC)cc2)cc1 | > 100 µM (inactive)
8 | O=C(N/N=C\c1cccc(O)c1)C(=O)N/N=C/c1cccc(O)c1 | 45 µM
9 | Cc1ccc(O)c(C=NNC(=O)c2[nH]ncc2Br)c1 | 18.9 µM
10 | CC(=O)Nc1ccc(/C=N/NC(=O)C(=O)N/N=C/c2ccc(NC(C)=O)cc2)cc1 | > 100 µM (inactive)
11 | O=C1Nc2ccc(Br)cc2C12NNc1ccccc1O2 (stereo unspecified) | 0.689 µM
12 | O=C(N/N=C/c1ccc2c(c1)OCO2)C(=O)N/N=C/c1ccc2c(c1)OCO2 | > 100 µM (inactive)
13 | COc1cccc(C=NNC(=O)C(=O)NN=Cc2cccc(OC)c2O)c1O | 9.12 µM
14 | N#CCOc1ccccc1/C=N/NC(=O)C(=O)N/N=C/c1ccccc1OCC#N | 86.5 µM
15 | CCOc1cccc(C=NNC(=O)c2cc(-c3cccn3C)n[nH]2)c1O | 12.5 µM
16 | Cn1cccc1-c1cc(C(=O)NN=Cc2cc(Br)ccc2O)[nH]n1 | 9.91 µM
17 | O=C(N/N=C/c1ccccc1O)c1cc(C2CC2)[nH]n1 | 10.2 µM
18 | CC1C(=O)NN=C1C(=O)NN=Cc1ccc(O)cc1O (stereo unspecified) | 10.7 µM
19 | O=C(NN=Cc1c(O)ccc2ccccc12)c1[nH]ncc1Br | 9.64 µM

Row | Compound | EC50
20 | COc1cccc(C=NNC(=O)C2=NNC(=O)C2C)c1O (stereo unspecified) | 8.22 µM
21 | COc1ccc(-c2cc(C(=O)NN=Cc3c(O)ccc4ccccc34)[nH]n2)cc1 | 19.6 µM
22 | COc1ccc(-c2csc(Nc3cccc4ccccc34)n2)cc1F | > 100 µM (inactive)
23 | O=C(N/N=C/c1cc(Br)ccc1O)c1cc(C2CC2)[nH]n1 | 11.3 µM
24 | CCOc1cccc(C=NNC(=O)c2cc(C3CC3)[nH]n2)c1O | 7.63 µM
25 | COc1cc(/C=N/NC(=O)C(=O)N/N=C/c2ccc(O)c(OC)c2)ccc1O | 27.9 µM
26 | Cc1ccc(-c2cc(C(=O)NN=Cc3ccccc3O)n[nH]2)o1 | 6.19 µM
27 | Cc1cc(C(=O)N/N=C\c2cc(C(C)(C)C)ccc2O)n[nH]1 | 7.65 µM
28 | COc1cc(OC)c(OC)cc1/C=N/NC(=O)C(=O)N/N=C/c1cc(OC)c(OC)cc1OC | > 100 µM (inactive)
29 | CN(C)c1ccc(/C=N/NC(=O)C(=O)N/N=C/c2ccc(N(C)C)cc2)cc1 | > 100 µM (inactive)
30 | COc1cc(/C=N/NC(=O)C(=O)N/N=C/c2cc(OC)c(OC)c(OC)c2)cc(OC)c1OC | > 100 µM (inactive)
31 | COC(=O)c1ccc(/C=N/NC(=O)C(=O)N/N=C/c2ccc(C(=O)OC)cc2)cc1 | > 100 µM (inactive)
32 | OC(c1nc2ccc(F)cc2[nH]1)C(O)c1nc2ccc(F)cc2[nH]1 (stereo unspecified) | 6.78 µM
33 | Cc1cc(C(=O)NN=Cc2cccc([N+](=O)[O-])c2O)n[nH]1 | 14.6 µM
34 | COc1ccc(OC)c(/C=N/NC(=O)C(=O)N/N=C/c2cc(OC)ccc2OC)c1 | 90.7 µM
35 | COc1cc(/C=N\NC(=O)C(=O)N/N=C/c2cc(OC)c(O)c(OC)c2)cc(OC)c1O | 19.2 µM
36 | O=C(N/N=C/c1ccccc1O)c1n[nH]c2c1CCC2 | 8.25 µM
37 | C/C(=N\NC(=O)c1cc(C)[nH]n1)c1ccc2ccccc2c1O | 6.59 µM
38 | O=C(CCN1C(=O)/C(=C/c2ccccc2Cl)SC1=S)NNC(=O)c1ccccc1O | 25.5 µM

Row | Compound | EC50
39 | CC(=NNC(=O)C(=O)NN=C(C)c1cccc(O)c1)c1cccc(O)c1 | 84.6 µM
40 | CC(=O)Nc1cccc(C(=O)NNC(=O)c2n[nH]c(=O)c3ccccc23)c1 | 9.05 µM
41 | C/C(=N\NC(=O)c1[nH]nc2c1CCc1ccccc1-2)c1ccccc1O | 8.62 µM
42 | O=C(N/N=C\c1ccc2c(c1)OCO2)C(=O)N/N=C/c1ccc2c(c1)OCO2 | > 100 µM (inactive)
43 | O=C(N/N=C/c1cc(Br)ccc1O)C(=O)N/N=C/c1cc(Br)ccc1O | 11 µM
44 | CCOc1cc(/C=N/NC(=O)C(=O)N/N=C/c2ccc(O)c(OCC)c2)ccc1O | > 100 µM (inactive)
45 | O=C(NN=Cc1ccc(O)cc1O)C(=O)NN=Cc1ccc(O)cc1O | 6.5 µM
46 | CCN(CC)c1ccc(/C=N/NC(=O)C(=O)N/N=C/c2ccc(N(CC)CC)cc2O)c(O)c1 | > 100 µM (inactive)
47 | O=C(N/N=C/c1c(O)ccc2ccccc12)c1cc(-c2cccs2)[nH]n1 | 11.1 µM
48 | COc1cccc(C=NNC(=O)c2cc(-c3cccn3C)n[nH]2)c1O | 8.6 µM
49 | O=C(N/N=C/c1ccc(O)cc1)C(=O)N/N=C/c1ccc(O)cc1 | 43.9 µM
50 | O=C(N/N=C/c1c(O)ccc2ccccc12)C(=O)N/N=C/c1c(O)ccc2ccccc12 | > 100 µM (inactive)
51 | O=C(NN=Cc1ccccc1)C(=O)NN=Cc1ccccc1 | 30.7 µM
52 | Cc1cc(C(=O)NN=Cc2cc(Cl)cc([N+](=O)[O-])c2O)n[nH]1 | 13.6 µM
53 | CC(C)Oc1ccccc1/C=N/NC(=O)C(=O)N/N=C/c1ccccc1OC(C)C | 36.4 µM
54 | O=C(NC(=S)NNC(=O)c1ccccc1O)c1ccc(F)cc1 | 9.41 µM
55 | COc1cccc(C=NNC(=O)c2[nH]nc3c2CCc2ccccc2-3)c1O | 9.65 µM
56 | COc1cc(OC)cc(C(=O)NNC(=O)c2nn(C)c(=O)c3ccccc23)c1 | 11.8 µM
